{
  "source": "patent US5409935A",
  "about": "“Xanthine derivatives for the treatment of secondary nerve cell damage and functional disorders after cranio-cerebral traumas” (Hoechst Aktiengesellschaft, priority 1991, dated 1995)",
  "key": {"[1]": {"conditions": "known; cited from earlier work"}, "[2]": {"conditions": "arterial circulatory disorders, known; cited from earlier work"}, "peritoneal macrophages": {"test_system": "peritoneal macrophages", "assay": "Flow-cytometric free radical formation (oxidation of Dihydrorhodamine 123 to Rhodamine 123) in peritoneal macrophages, conA-stimulated", "assay_type": "cell-based, white male Wistar rats", "conditions": "for fluorescence, conA ± Comp. 1: 50 μM compound 1, conA-stimulated; for inhibition at 50 µM: conA-stimulated, * p < 0.05", "experimental": "Peritoneal macrophages were obtained by peritoneal washing of white male Wistar rats aged 12 weeks with 10 ml of HBS-Hanks (Serva Feinbiochemica, Heidelberg). […] All cells were stored for a period of at most 2 hours after preparation until flow-cytrometric analysis at 4° C.\nThe cell volume and two fluorescences were simultaneously measured in about 10,000 cells per sample using a FACScan flow cytometer (Becton Dickinson, San Jose, Calif., USA). […] The flow cytometer was calibrated with standardized yellow-green-fluorescing microspheres of 4.3 μm diameter (Polysciences, St. Goar, F.R.G.).\n(§1) Each measurement is based on the individual measurements of the cells contained in a sample (about 10,000). In order to keep the experimental boundary conditions as constant as possible, several experiments were carried out successively on the same day. In such a test series, in each case four different samples of an experimental group and their control were measured by flow cytometry at variously defined points of time. As a rule, 3-4 test series were carried out per experimental group."}, "microglia cells": {"test_system": "microglia cells", "assay": "Flow-cytometric free radical formation (Rhodamine 123 fluorescence) in cultured microglia cells", "assay_type": "cell-based, newborn rats", "conditions": "for inhibition at 50 µM: Rattus norvegicus, Microglia, * p < 0.05", "experimental": "In order to measure the intracellular generation of oxygen free radicals in peritoneal macrophages and in cultures of activated microglia, a flow-cytometric method was used (Rothe, Oser, Valet, Naturwissenschaften, 75, 354, 1988). Specifically, the free radical formation in individual viable cells was determined by measuring the intracellular oxidation of the membrane-permeable and non-fluorescent Dihydrorhodamine 123 (DHR; Eugene, Ore., USA) to the membrane-impermeable and intracellularly \"trapped\", green fluorescent Rhodamine 123.\nDHR was dissolved in a 43.3 mM stock solution in N,N-dimethylformamide (DMF; Merck, Darmstadt, F.R.G.). The method is also suitable for the individual and simultaneous measurement of various subpopulations within a heterogeneous cell population; it therefore allows the exclusion of contaminating populations. Moreover, in another series of tests the identification of the cell type to be measured in each case was simultaneously confirmed during the flow-cytometric measurement by specific immunocytochemical antibody staining. Peritoneal macrophages were obtained by peritoneal washing of white male Wistar rats aged 12 weeks with 10 ml of HBS-Hanks (Serva Feinbiochemica, Heidelberg). The cells were sedimented at 200 g and 20° C. for 5 min and resuspended in HBS-Hanks (4×10^6 cells/ml). All cells were stored for a period of at most 2 hours after preparation until flow-cytrometric analysis at 4° C.\nMicroglia cultures from the brain of newborn rats were prepared (Giulian & Baker, J. Neuroscience, 1986, 6:2163-2178). After mechanical dissociation of the tissue in Dulbecco's modified Eagle's medium (Sigma Chemie, DMEM), supplemented with 2 g/l of NaHCO3 and 20% heat-inactivated fetal calf serum, the primary cultures were kept in […] culture flasks at 3% pCO2 and 37° C. for 2 to 4 weeks. Cells which grew on the surface of a continuous cell layer were removed by shaking, pelleted and resuspended (3×10^6 cells/ml) in Hepes Hanks buffered salt solution (5 mM Hepes, 0.15M NaCl, pH 7.35; Serva Feinbiochemica, Heidelberg, F.R.G.). In order to test the effect of the compound 1, in the experimental groups the DHR-loaded cells were incubated with 50 μM of the compound according to the invention for 15, 25, 35, 45 and 60 min, to be precise with or without parallel stimulation of free radical formation by concanavalin A (conA, 100 μM/ml). No active substance was added to the respective control groups.\nThe cell volume and two fluorescences were simultaneously measured in about 10,000 cells per sample using a FACScan flow cytometer (Becton Dickinson, San Jose, Calif., USA). Rhodamine 123 green fluorescence (500-530 nm) and propidium iodide red fluorescence (590-700 nm) were measured with excitation by an argon laser with a wavelength of 488 nm. The flow cytometer was calibrated with standardized yellow-green-fluorescing microspheres of 4.3 μm diameter (Polysciences, St. Goar, F.R.G.).\nas §1"}},
  "data": [
    {"smiles": "CCCn1cnc2c1c(=O)n(CCCCC(C)=O)c(=O)n2C", "note": "[compound 1, 1-(5-oxohexyl)-3-methyl-7-n-propylxanthine]", "values": [
      {"measurement": "toxicity", "setting": "[1]", "result": "low toxicity"},
      {"measurement": "vasodilating action", "setting": "[2]", "result": "vasodilating action"},
      {"measurement": "suppressive effect on free radical formation, dose dependence", "setting": "peritoneal macrophages; 10 μM and 50 μM", "result": "dose-dependent"},
      {"measurement": "stimulatory effect of conA in the presence of compound 1", "setting": "peritoneal macrophages; 50 μM compound 1", "result": "blocked"},
      {"measurement": "fluorescence, conA ± Comp. 1", "setting": "peritoneal macrophages; 15 min", "result": 9.0875, "unit": "apparatusspecific units"},
      {"measurement": "fluorescence, conA ± Comp. 1", "setting": "peritoneal macrophages; 25 min", "result": 8.0867, "unit": "apparatusspecific units"},
      {"measurement": "fluorescence, conA ± Comp. 1", "setting": "peritoneal macrophages; 35 min", "result": 25.5, "unit": "apparatusspecific units"},
      {"measurement": "fluorescence, conA ± Comp. 1", "setting": "peritoneal macrophages; 45 min", "result": 31.755, "unit": "apparatusspecific units"},
      {"measurement": "significance of effect of compound 1", "setting": "peritoneal macrophages; 50 μM, all measurements with incubation times over 15 min", "result": "significant (p<0.05 in the t-test)"},
      {"measurement": "inhibition at 50 µM", "setting": "peritoneal macrophages; Rattus norvegicus, Peritoneal macrophage, 25 min, 50 μM", "result": 60, "unit": "%"},
      {"measurement": "inhibition at 10 µM", "setting": "peritoneal macrophages; Rattus norvegicus, Peritoneal macrophage, 35 min, 10 μM, maximum conA activation, p<0.05 in the t-test", "result": 21, "unit": "%"},
      {"measurement": "inhibition at 50 µM", "setting": "peritoneal macrophages; Rattus norvegicus, Peritoneal macrophage, 35 min, 50 μM", "result": 37, "unit": "%"},
      {"measurement": "inhibition at 50 µM", "setting": "peritoneal macrophages; Rattus norvegicus, Peritoneal macrophage, 0.75 h, 50 μM, 45 min", "result": 32, "unit": "%"},
      {"measurement": "inhibition of free radical formation", "setting": "microglia cells; 50 μM", "result": "clear inhibition"},
      {"measurement": "fluorescence, Compound 1", "setting": "microglia cells; 50 μM, 15 min", "result": 2060.6, "unit": "apparatusspecific units"},
      {"measurement": "fluorescence, Compound 1", "setting": "microglia cells; 50 μM, 25 min", "result": 2121.3, "unit": "apparatusspecific units"},
      {"measurement": "fluorescence, Compound 1", "setting": "microglia cells; 50 μM, 35 min", "result": 1170.4, "unit": "apparatusspecific units"},
      {"measurement": "maximum depression of cellular Rhodamine 123 fluorescence", "setting": "microglia cells; 50 μM, 35 min", "result": "about one-third"},
      {"measurement": "fluorescence, Compound 1", "setting": "microglia cells; 50 μM, 45 min", "result": 1556.9, "unit": "apparatusspecific units"},
      {"measurement": "fluorescence, Compound 1", "setting": "microglia cells; 50 μM, 60 min", "result": 910.4, "unit": "apparatusspecific units"},
      {"measurement": "significance of effect of compound 1", "setting": "microglia cells; 50 μM, incubation times of over 15 min", "result": "significant (p<0.05 in the t-test)"},
      {"measurement": "inhibition at 50 µM", "setting": "microglia cells; 25 min", "result": 19, "unit": "%"},
      {"measurement": "inhibition at 50 µM", "setting": "microglia cells; 35 min", "result": 27, "unit": "%"},
      {"measurement": "inhibition at 50 µM", "setting": "microglia cells; 0.75 h, 45 min", "result": 23, "unit": "%"},
      {"measurement": "inhibition at 50 µM", "setting": "microglia cells; 1 h, 60 min", "result": 27, "unit": "%"}
    ]}
  ]
}
